# Test: Human HepG2 cell viability assay in 384 well format
# Assay type: toxicity, cell-based
# Set-up: dose 125 nL, time 70.5 hour; concentration not given beside the values
# Settings: HepG2 cells, read-out: Inhibition
row,SMILES,cytotoxicity at 70.5 h
1,CCC(CC)C(=O)NCc1c(C)nn(C)c1N1CCCN(C)CC1,22.5%
2,Cc1nn(C)c(N2CCCN(C)CC2)c1CNC(=O)CC1CCCC1,0.191%
3,COC(=O)C1CCCN1CC(=O)NCc1ccc(OCC(N)=O)cc1 (stereo not drawn),4.54%
4,O=C(CNC1(c2ccc(Cl)cc2)CCOCC1)NC1CCCC1,1.78%
5,O=C1CN(c2ccc(CNC(=O)Nc3nccs3)cc2)CCN1,1.2%
6,Cc1nc(N2CCN(C(=O)CC3CCCC3)CC2)c2cnn(C)c2n1,0.786%
7,CC(Nc1cccc2c1OCCO2)C(=O)Nc1ccc(Cl)cc1 (stereo not drawn),2.81%
8,Cc1nn(C)c(Cl)c1C1CCCN1CC(=O)NC1CCCC1 (stereo not drawn),2.37%
9,CCNC(=O)NCC1(CN2CCOCC2)CCCCC1,0.842%
10,COC(=O)N1CCC(Nc2ccc(Cl)c(C#N)n2)C1 (stereo not drawn),-2.14%
11,Cc1nn(C)cc1C(=O)NCc1cc(N(C)C)nc2ccccc12,-0.83%
12,O=C(COC1CCCC1)NCCc1noc(-c2ccccn2)n1,-5.96%
13,CCN(C)C(=O)NCC1(CN2CCOCC2)CCCCC1,-4.49%
14,CCOCCC1(CNC(=O)c2ccsc2)CCC1,-5.98%
15,Cc1nn(C)c(Cl)c1C1CCCN1CC(=O)N1CCOCC1 (stereo not drawn),1.93%
16,CC1CCC(NC(=O)CNC2(c3ccc(F)cc3)CCOCC2)CC1 (stereo not drawn),-3.54%
17,Cc1nn(C)c(C)c1CC(=O)N1CCCC(CNS(C)(=O)=O)C1 (stereo not drawn),-0.898%
18,CC(Cn1cccn1)C(=O)N1CCCN(Cc2cscn2)CC1 (stereo not drawn),-0.68%
19,O=C(c1ccoc1)N(Cc1ccccn1)C1CC1,-14.2%
20,COC(=O)c1cc(OC)ccc1NCC(=O)NCC(=O)N1CCCC1,-17.6%
21,NC(=O)C1CCN(CCc2ccc(NCc3cscn3)cc2)CC1,-12.5%
22,Cc1cc(CCCC(=O)NC2CCN(C)C2=O)c(C)s1 (stereo not drawn),-9.64%
23,CN(C)C(=O)C1CCCN1c1ccnc2ccsc12 (stereo not drawn),-7.45%
24,CC(NCCN1CCN(C(=O)C2CCCC2)CC1)c1ccccn1 (stereo not drawn),-2.99%

row,SMILES,cytotoxicity at 70.5 h
1,NCc1csc(CCc2ccccc2)n1,-8.04%
2,CC(c1cccc(O)c1)N(C)S(=O)(=O)c1cccnc1 (stereo not drawn),4.03%
3,CN(C)C(=O)c1cc(S(=O)(=O)N2CCCC2Cn2ccnc2)cn1C (stereo not drawn),2.99%
4,Cc1ccc(C(N)c2cccs2)cc1 (stereo not drawn),31.8%
5,COC(=O)c1ccc(CNC(=O)Nc2ccc(=O)n(C)c2)cc1,-2.19%
6,CN(Cc1ccsc1)C(=O)Nc1ccc(=O)n(C)c1,-6.48%
7,Cc1nn(C(C)C)c(C)c1S(=O)(=O)Nc1cccc(C(=O)O)c1,-5.93%
8,Cc1nn(C(C)C)c(C)c1S(=O)(=O)Nc1cccc(F)c1,-0.473%
9,O=C(NS(=O)(=O)c1ccc2c(c1)CCC2)C1COCCO1 (stereo not drawn),26.8%
10,CSc1ccsc1C(=O)NC(C)c1ccc2c(c1)CCC(=O)N2 (stereo not drawn),11.2%
11,CCCNC(=O)c1cc(Br)cc(S(=O)(=O)N2CCOCC2)c1F,-0.419%
12,Cn1cc(NC(=O)c2cccc(Cl)c2)c(=O)n(C)c1=O,24%
13,Cc1nn(C(C)C)c(C)c1S(=O)(=O)Nc1ccc(C(=O)O)cc1,-1.04%
14,O=S(=O)(NCC1COCCO1)c1ccc(C2CCCCC2)cc1 (stereo not drawn),-4.34%
15,CCn1cc(S(=O)(=O)NC(CO)Cc2ccccc2)cn1 (stereo not drawn),-7.27%
16,O=S1(=O)CCC(n2cc(CNc3ccccc3Br)cn2)C1 (stereo not drawn),31.4%
17,Cc1cc2cc(CNC3CCN(CC(=O)N(C)C)CC3)oc2cc1C,-3.5%
18,OC(COCc1ccccc1)CSc1nnc(C2CC2)n1C1CC1 (stereo not drawn),0.33%
19,CC(C)c1ccc(C(N)c2cccs2)cc1 (stereo not drawn),-5.3%
20,Cc1cc(F)ccc1-n1cc(O)c(C(=O)NCC[S+](C)[O-])n1 (stereo not drawn),8.16%
21,CC(C)(C)n1nc(C2CC2)cc1C(=O)NC1CCN(CC(N)=O)CC1,-12.3%
22,Cc1cc(C(=O)NC2CCN(CC(N)=O)CC2)nn1C(C)(C)C,-18.9%
23,CC(C)c1cc(C(=O)NC2CCN(CC(N)=O)CC2)nn1C(C)(C)C,-10.3%
24,CC(CC(=O)NCCNS(C)(=O)=O)C1CCCCC1 (stereo not drawn),-13.2%

row,SMILES,cytotoxicity at 70.5 h
1,Cc1ccc(C(=O)N2CCCN(C)c3ccc(F)cc32)o1,-17.9%
2,Cc1cc(NC(=O)C2CCCN(C(=O)NCC(C)C)C2)ccn1 (stereo not drawn),-14.5%
3,Cc1cc(F)ccc1-n1cc(O)c(C(N)=O)n1,-19%
4,CCNC(=O)CNC(=O)Nc1c(F)cc(F)cc1-c1ccccc1,-9.19%
5,CSCC(C)N(C)C(=O)c1nn(-c2ccc(F)cc2C)cc1O (stereo not drawn),-10.1%
6,Cc1ccc(C)c(OC2CCN(C(=O)CNc3ccccc3Cl)CC2)c1,24.6%
7,CNC(=O)C1CCC(NC(=O)c2cc(C3CC3)n(C(C)(C)C)n2)CC1 (stereo not drawn),-6.36%
8,CN1CCN(C(=O)c2cnsn2)c2ccc(F)cc21,-10.4%
9,Cn1cc(C(O)CNC(=O)c2cc(Br)ccc2Cl)cn1 (stereo not drawn),-14.2%
10,c1cnc2nc(N3CCCC3c3nnc4n3CCCCC4)ccc2n1 (stereo not drawn),-4.33%
11,CC(Nc1cccc(COCc2ccco2)c1)C(=O)NC(N)=O (stereo not drawn),-23%
12,COc1ccc(Cn2ccnc2)cc1F,-10.7%
13,CCC(=O)N(CCN(C)C)Cc1ccc(F)c(F)c1,-13.7%
14,Cc1nc2ccccc2nc1NCc1cccc(OCC2CCCO2)c1 (stereo not drawn),0.538%
15,CN(C)C(=O)Cn1cc(C(=O)N2CCCc3cccc(F)c32)nn1,-17.3%
16,COc1ccccc1C1(CNc2ccnc(C(=O)N(C)C)c2)CC1,33.4%
17,COc1ncnc(N)c1CNCC(C)SC (stereo not drawn),34.8%
18,COc1ccccc1C1(CNc2cc(C(=O)N(C)C)ccn2)CC1,0.399%
19,CCCc1cc(N2CCCC2Cn2cc(C)cn2)n2ncnc2n1 (stereo not drawn),-8.77%
20,COCc1nc(CNC2CCCc3c2cnn3C(C)(C)C)cs1 (stereo not drawn),-6.43%
21,CC1CCN(C)c2ccccc2N1C(=O)c1ccc(=O)n(C)n1 (stereo not drawn),-5.36%
22,COC(=O)c1ccc(N2CCC(C(O)c3ccccc3)CC2)nn1 (stereo not drawn),-4.29%
23,O=S(=O)(c1ccc2c(c1)OCCO2)N1CCC(OCc2ccccn2)C1 (stereo not drawn),-8.08%
24,O=S(=O)(c1ccc(C(F)(F)F)cc1)N1CCC(OCc2ccccn2)C1 (stereo not drawn),1.24%

row,SMILES,cytotoxicity at 70.5 h
1,CC1CCN(C)c2ccccc2N1C(=O)c1ccc(=O)n(C)c1 (stereo not drawn),-6.14%
2,CCC(C)(COc1ncccc1Cl)NCC(=O)NC1CCCCC1 (stereo not drawn),-14.9%
3,CCC1C(=O)NCCN1c1ccnc(C(C)(C)C)n1 (stereo not drawn),-23.9%
4,CCC1C(=O)NCCN1c1cc(C)ncn1 (stereo not drawn),-22.8%
5,CN(CCc1ccccn1)C(=O)C(O)c1ccc(Br)cc1 (stereo not drawn),-4.38%
6,Cc1nc(NC(=O)NC(CS(C)(=O)=O)c2ccccc2)sc1C (stereo not drawn),-11.5%
7,CC(C)c1nsc(N2CCCOCC2)n1,37.7%
8,O=C(CN(CC(O)c1ccc(F)cc1)C1CC1)Nc1cccnc1 (stereo not drawn),-24.7%
9,CCNc1nc(C)c(C(=O)N(C)Cc2nc(CC)no2)s1,-34.8%
10,CC(C)n1cnnc1C1CCCN(S(=O)(=O)CCCC#N)C1 (stereo not drawn),-35.2%
11,COc1cccc(CN(C)C(=O)c2ccc(NC(C)=O)s2)c1OC,-62.7%
12,CC(=O)Nc1ccc(C(=O)N(C)Cc2ccc(F)cc2F)s1,-61.6%
13,COCC(O)CN(C)C(=O)NCc1ccc(S(C)(=O)=O)cc1 (stereo not drawn),-106%
14,CCS(=O)(=O)NC(CCSC)C(=O)Nc1ccc(C)cc1C (stereo not drawn),-88.5%
15,CC(C)(C)C(NCC(=O)N1CCNC(=O)C1)c1ccccc1 (stereo not drawn),-107%
16,CCS(=O)(=O)NC(CCSC)C(=O)Nc1cccc(C)c1C (stereo not drawn),-83.4%
17,CNS(=O)(=O)c1ccc(CNC(=O)N(C)CC(C)C)cc1,-94.7%
18,Cc1cc(N2CCc3c(ncn3C)C2)n2nc(C(F)(F)F)nc2n1,-105%
19,Cc1noc(CS(=O)(=O)C(C)C(=O)N(C)c2ccccc2)n1 (stereo not drawn),-23.3%
20,CS(=O)(=O)CCCN(CCCO)C1CCc2ccccc21 (stereo not drawn),-107%
21,Cn1ncnc1CNc1ccccc1C(=O)NC(C)(C)C,-100%
22,CS(=O)(=O)Cc1noc(CN2CCc3c(Cl)cccc3C2)n1,-79.4%
23,CNC(=O)c1ccc(OC)c(NCc2ncc(-c3cccs3)o2)c1,-92.5%
24,CCc1nn(C)c2[nH]nc(NC(=O)c3cccnc3OCC(C)C)c12,-90.4%

row,SMILES,cytotoxicity at 70.5 h
1,Cc1ccc(NC(=O)c2ncc(C(N)=O)cc2Cl)cc1F,-87.6%
2,CC(C)c1ccc(NC(=O)c2ncc(C(N)=O)cc2Cl)cc1,-86.1%
3,CCS(=O)(=O)NC(CCSC)C(=O)Nc1ccccc1C (stereo not drawn),-92%
4,CC(C)n1cnnc1C1CCCN(S(=O)(=O)CC2CCCC2)C1 (stereo not drawn),-106%
5,CC(NCC(N)=O)c1c(F)cccc1Cl (stereo not drawn),-85.6%
6,CC(=O)Nc1ccc(C(=O)N(C)Cc2cccc(F)c2)s1,-105%
7,CCc1nn(C)c2[nH]nc(NC(=O)c3ccccc3COC)c12,-101%
8,Cc1cc(CNC(C)Cn2cncn2)ccc1Br (stereo not drawn),-87.4%
9,CC(=O)N1CCC(C(=O)NC2CCc3nccn3C2)CC1 (stereo not drawn),-97.6%
10,CNS(=O)(=O)c1ccc(CNC(=O)N(C)CC(O)COC)cc1 (stereo not drawn),-74.7%
11,CS(=O)(=O)NCCN(CCCO)C1CCc2ccccc21 (stereo not drawn),-97.1%
12,Cc1cc(CNc2ccccc2N2CCCCC2)no1,-24%
13,CN1CCN(c2ccc(Cl)cc2NC(=O)c2ccco2)CC1,12.6%
14,COc1ccc(CSc2nnc(N)n2C2CC2)cc1F,24.8%
15,COc1ccc(C)cc1NS(=O)(=O)c1ccc(CCNC(C)=O)s1,-4.06%
16,CC(=O)NCCc1ccc(S(=O)(=O)Nc2ccc(C)cc2F)s1,-2.14%
17,CN(CCCNC(=O)C1CCCN(C(N)=O)C1)S(C)(=O)=O (stereo not drawn),-9.57%
18,COCCN1CCN(CC(O)c2ccc(C(F)(F)F)cc2)CC1 (stereo not drawn),-7.3%
19,CCOCCN1CCN(CC(O)c2ccc(C(F)(F)F)cc2)CC1 (stereo not drawn),-0.521%
20,CC(CO)NC(=O)c1ccc(NCc2ccccc2)cc1 (stereo not drawn),-7%
21,CCC(NC(=O)CCCNC(=O)OC)c1cc(F)ccc1F (stereo not drawn),-3.13%
22,CCOC(=O)c1cnn(C2CCN(C(=O)CC3CCCC3)CC2)c1N,-2.45%

# — ChEMBL document CHEMBL3507680, “University of Dundee, Gates Library screen for HepG2 cell viability”
